# Data published in patent US9518976B2, “Methods for identifying or assaying for agents that increase beta-cell proliferation, insulin secretion, insulin sensitivity, glucose tolerance and decrease fat mass” (The Trustees of Columbia University in The City of New York, priority 2006, dated 2016).
# Ends that are not written are not given here.
# Legend:
# Wild type adipocytes = assay: Adiponectin expression in wt adipocytes treated with osteocalcin (real time PCR); assay type: cell-based, mouse; conditions: wild type adipocytes treated for 4 hours; real time PCR; vs vehicle
# Text: (§1) FIG. 7. Esp−/− Mice Are a Model of Increased Osteocalcin Bioactivity. (A-G) Comparison between 6-week-old WT, Esp−/, Ocn+/−, and Esp−/−; Ocn+/− mice. (A) Blood glucose levels. (B) Serum insulin levels. (C) Serum adiponectin levels. (D) GTT. (E) ITT. (F) GSIS test. (G) Quantification of the number of Ki67-immunoreactive cells in pancreatic islets. […] (J) Expression of Adiponectin in WT adipocytes cocultured with osteoblasts treated with warfarin or vehicle. (K) Expression of Adiponectin in WT adipocytes cultured in presence of vehicle or of 1 ng/ml of commercially available carboxylated osteocalcin (Immunotopics) or bacterially produced uncarboxylated osteocalcin. (L) Expression of Insulin and Cyclin D1 in WT islets cultured in presence of 0.3 ng/ml of bacterially produced uncarboxylated osteocalcin or vehicle. (M) Metabolic parameters and total serum osteocalcin levels in control and obese patients. (N-O) Quantification of carboxylated osteocalcin (HA-bound osteocalcin) in control and obese patients. In (A)-(C) and (G)-(L): *p<0.05 versus WT (Student's t test); in (D)-(F), °p<0.05 versus WT and *p % 0.001 versus WT (ANOVA followed by post hoc analysis).
# FIG. 15. […] Wt adipocytes were treated for 4 hours with recombinant full-length osteocalcin (1-46) or a truncated form (1-36) or vehicle. Adiponectin expression was then quantified by real time PCR.
# Primary adipocytes were isolated from epididymal fat pads by collagenase digestion. Briefly, minced adipose tissue was digested by 1 mg/ml collagenase P in KRP Buffer (20 mM HEPES, 120 mM NaCl, 6 mM KCl, 1.2 mM MgSO4, 1 mM CaCl2, 0.6 mM Na2HPO4, 0.4 mM NaH2PO4, 2.5 mM D-glucose, 2% BSA, pH 7.4) for 1 h at 37° C. The isolated cells were washed twice with KRP Buffer before being cultured in αMEM/1% FBS at 37° C. in 5% CO2.
# All gene expression analyses were performed using real time PCR. DNAse I-treated total RNA was converted to cDNA with the SuperScript III kit (Invitrogen). Real-time PCR were performed using the Taq SYBR Green Supermix with ROX (Biorad) on an MX3000 instrument (Stratagene); beta-actin amplification was used as an internal reference for each sample. All primers were from SuperArray.
# Experiments were performed to test whether truncated osteocalcin was as effective as full-length uncarboxylated osteocalcin in stimulating adiponectin secretion from mouse adipocytes in vitro. Wild type adipocytes were treated for 4 hours with recombinant full-length osteocalcin (1-46) or a truncated form (1-36) (having a deletion of the […] ten amino acids from the C-terminal end) or vehicle. Adiponectin expression was then quantified by real time PCR. […]
# [1] = Osteocalcin subcutaneous infusion in wt mice: body weight and gonadal fat pad mass; assay type: in vivo, mouse
# Procedure: FIG. 13. […] 1) Indicated doses of recombinant osteocalcin or PBS were infused subcutaneously for 28 days in wt mice. Body weight was recorded at indicated days. (2). Gonadal fat pad mass was measured after 28 days.
# In another in vivo experiment, the effect of uncarboxylated osteocalcin on body weight and fat pad mass was monitored (FIG. 13). Wild type mice were infused subcutaneously for 28 days with PBS or uncarboxylated osteocalcin at 0.3, 1 or 3 ng/hour. […] (FIG. 13) Gonadal fat pad mass, measured after 28 days, decreased by about % 18 with 3 ng/hour uncarboxylated osteocalcin treatment.
# [2] = test system: GTG-induced obesity in wt mice; assay: Osteocalcin subcutaneous infusion in gold thioglucose (GTG)-injected wt mice: body weight gain; assay type: in vivo, mouse; conditions: GTG-injected wild type mice; for body weight gain: 1 ng/hr s.c. osmotic pump for 28 days, from 7 days on, vs PBS
# Procedure: FIG. 14. […] Wt mice were injected with gold thioglucose (GTG) or vehicle to induce hyperphagia and obesity. Two weeks later they were implanted with subcutaneous osmotic pumps infusing […] of recombinant osteocalcin or PBS for 28 days before. Body weight gain was recorded thereafter at indicated days.
# The effect of uncarboxylated osteocalcin on GTG-induced obesity was investigated (FIG. 14). Wild type mice were injected with gold thioglucose (GTG) to induce hyperphagia and obesity or vehicle. Two weeks later they were implanted with subcutaneous osmotic pumps infusing 1 ng/hr of recombinant uncarboxylated osteocalcin or PBS for 28 days. […] At 28 days, body weight was reduced by about 15% with uncarboxylated osteocalcin treatment.
# WT islets = assay: Insulin and Cyclin D1 expression in WT islets cultured with uncarboxylated osteocalcin; assay type: cell-based, mouse; conditions: 0.3 ng/ml (FIG. 7L)
# Text: as §1
# Islets were isolated using a Histopaque gradient (1077, Sigma). In brief, after clamping the common bile duct at its entrance to the duodenum, 1 mg/ml collagenase P (Sigma) in M199 medium (GIBCO) was injected into the duct. […]
# Wild type mice = assay: Osteocalcin subcutaneous infusion in wt mice: glycemia; assay type: in vivo, mouse; conditions: 0.3, 1 and 3 ng/hour subcutaneous infusion for 28 days, vs PBS
# Procedure: FIG. 10. […] Indicated doses of recombinant osteocalcin or PBS were infused subcutaneously for 28 days in wt mice. Blood glucose was measured at indicated days.
# An in vivo experiment was conducted in which the effect of undercarboxylated osteocalcin on glycemia was monitored. Wild type mice were infused with 3 different amounts of mouse recombinant undercarboxylated osteocalcin or placebo (PBS) subcutaneously for 28 days (0.3, 1 and 3 ng/hour).
# [3] = listed as recombinant osteocalcin
substance,measurement,setting,value
"uncarboxylated osteocalcin: Recombinant mouse osteocalcin bacterially produced, cleaved from GST with thrombin; completely undercarboxylated at all three sites (YLGASVPSPDPLEPTREQCELNPACDELSDQYGLKTAYKRIYGITI; not fully specified; ends and bridges not checked; UniProt P86546 50-95, looked up)",Adiponectin expression increase,Wild type adipocytes,~1.5 fold
same,gonadal fat pad mass decrease,"[1]; wild type mice, 3 ng/hour s.c., after 28 days",~18%
same,body weight,"[1]; wild type mice, 0.3, 1 or 3 ng/hour s.c. for 28 days, highest dose most effective",slightly reduced
same,gonadal fat pad mass,"[1]; wild type mice, the other doses (0.3, 1 ng/hour), 28 days",did not significantly decrease
same,fat mass,"[1]; wt mice, indicated doses s.c. for 28 days (FIG. 13 legend)",decreases fat mass
same,body weight gain,[2],significantly reduced
same,body weight gain,[2]; [3],prevents GTG-induced obesity
same,body weight reduction,"[2]; 1 ng/hr s.c., at 28 days",about 15%
same,"expression of Cyclin D1, marker of beta-cell proliferation",WT islets,induced
same,insulin expression,WT islets,induced
same,glycemia (blood glucose),Wild type mice; [3],decreases glycemia
same,glycemia (blood glucose),Wild type mice; listed as undercarboxylated osteocalcin,decreased glycemia
